| melting point | SMILES |
| --- | --- |
| 167 to 168 °C | CC(=O)c1ccc2c(c1)OC(C(=O)O)CO2 (centres undefined) |
| 191 °C | CCCS(=O)(=O)Cc1ccc(C(=O)Nc2ccc3cc(CN4CCCC4)cnc3c2C)cc1 |
| 226 to 228 °C | CC12CCC(C1)C1(C)Oc3ccc(C(=O)/C=C/c4cc(C(=O)O)cs4)cc3C21C (centres undefined) |
| 169 °C | Cc1cc(OCCCS(C)(=O)=O)cc(C)c1-c1cccc2c1OC[C@H]2Nc1ccc2c(c1)OC[C@H]2CC(=O)O |
| 72 to 73 °C | CCCCCCOc1ccc(O)c2cc(C)c(C)cc12 |
| 160 to 162 °C | CC(C)(ON=C(C(=O)O)c1ccco1)C(N)=O |
| 176 °C | CC(C)(C)CC1NC(C(=O)NC2CCC(O)CC2)C(c2cccc(Cl)c2F)C12C(=O)Nc1cc(Cl)ccc12 (centres undefined) |
| 161 to 162 °C | CCCCN(CCCC)c1ccc(C=CC=Cc2ccc(C=CC3=C(C#N)C(=C(C#N)C#N)OC3(C)C(F)(F)F)s2)c(OC)c1 (centres undefined) |
| 226 to 228 °C | CC1(C)Oc2ccc(C(=O)CCC(=O)O)cc2NC1=O |
| 98 to 105 °C | COc1ccccc1OCC(O)CNCCOc1ccc(C(N)=O)cn1 (centres undefined) |
| 147 to 148 °C | COCCOc1ccc(/C=C/C(=O)NS(=O)(=O)c2cccc(C)c2)c(Oc2ncc(C(F)(F)F)cc2Cl)c1 |
| 130 to 131 °C | CCOc1ccc2c(C)c(CCO)c(=O)oc2c1OCC |
| 140 to 142 °C | Cn1c(=O)c(-c2c(Cl)cccc2Cl)cc2cnc(NCCCN3CCOCC3)nc21 |
| 90 to 94 °C | CCCCN(Cc1ccc(-c2ccccc2-c2nnnn2C(c2ccccc2)(c2ccccc2)c2ccccc2)cc1)c1ncccc1C(=O)OCC |
| 69.5 to 70 °C | CN(C)Cc1cc(CCCCCCCOc2ccc(C3=NCCO3)cc2)on1 |
| 93 to 95 °C | COc1cc2ccc(C(=O)CCCCBr)cc2cc1OC |
| 110 to 111 °C | CCOc1nn(CCc2ccc(OCc3nc(-c4ccccc4)oc3C)cc2)cc1CCC(=O)O |
| 124 to 126 °C | Cc1cc(N)c(C)c2c1OC(C)(C)C2=O |
| 128 to 130 °C | CC(C)(C)c1nc2cc(N3CCN(S(C)(=O)=O)CC3)c(N=C=S)cc2s1 |
| 53 to 54.5 °C | CN1Cc2ccccc2CC1c1ccc(C(C)(C)C)cc1 (centres undefined) |
| 151 to 153 °C | CC(C)(C)OC(=O)NC1COCCCC=CC2CC2(C(=O)NS(=O)(=O)C2CC2)NC(=O)C2CC(OC(=O)Nc3ccccc3Oc3ccccc3)CN2C1=O (centres undefined) |
| 60 to 62 °C | CCCc1c(OCCCOc2ccc3c(c2CCC)OC(CCC(=O)O)C=C3)ccc(C(C)=O)c1O (centres undefined) |

| melting point | SMILES |
| --- | --- |
| 93 to 95 °C | CCON=C(C)c1cccc(Oc2nc(OC)cc(OC)n2)c1C(=O)OC |
| 103 to 105 °C | CC(C)(C)NS(=O)(=O)c1cccc2c1SC(C)(C)C2 |
| 113 to 114 °C | Cc1cccc(C2(O)c3cc(NC(=O)CC(C)(C)C)c(C)c(C)c3OC2(C)C)c1 (centres undefined) |
| 94 to 95 °C | O=c1cc(-c2ccccc2)oc2cc(OCCCCCN3CCC(O)CC3)ccc12 |
| 214 to 215 °C | CCc1nc2c(N)nc3cc(OCc4ccccc4)ccc3c2n1CCCCNS(C)(=O)=O |
| 150 to 151 °C | COc1cc(OC)nc(NC(=O)NS(=O)(=O)c2sccc2C(CCl)OC(C)=O)n1 (centres undefined) |
| 50 to 52 °C | C=CCONC(CCC)=C1C(=O)CC(CCC2OCCCO2)CC1=O (centres undefined) |
| 77 to 93 °C | COc1cc2c(cc1Nc1ncc(Cl)c(Nc3ccccc3OCC#N)n1)CCN(CC(=O)N(C)C)CC2 |
| 155 to 157 °C | CCCCOCCOc1ccc(-c2ccc(N3CCOCC3)c(C=CC(=O)O)c2)cc1 |
| 217 to 218 °C | O=C(O)CNC(=O)Nc1cccc([N+](=O)[O-])c1 |
| 63 to 65 °C | C=C(CCCC(=O)N1CCC[C@@H](C(=O)OC(C)(C)C)N1)C(=O)OCC |
| 134 to 136 °C | CC(=O)OCC[C@H](NC(=O)C(F)(F)F)C(=O)O |
| 150 to 152 °C | Nc1nonc1C(=O)NCCCCCC(=O)NO |
| 120 °C | CC(C)(C)OC(=O)N1CCC(c2cc(C(F)(F)F)ccc2N)CC1 |
| 100 to 102 °C | C=Cc1c(NCc2ccco2)nc(-c2ccc(Cl)c(OC)c2F)nc1C(=O)OC |
| 215 °C | COC(=O)c1c(C)n(-c2cc(N)c(C)cc2C)cc(Cl)c1=O |
| 113 to 115 °C | FC(F)(F)c1ccc(C=Cc2nc(CNc3ccc(CCCCn4ccnn4)cc3)co2)cc1 |
| 81 to 82 °C | CC(C)(CO)CCCNC(=O)NCCCC(C)(C)CO |
| 146 to 148 °C | Cn1c(CC(=O)O)cc2ccccc21 |
| 186 to 189 °C | Cc1nn(-c2ccc(Cl)cc2)cc1C(=O)N(CC(=O)O)c1ccc(OCC(C)(C)C)c(C#N)c1 |
| 49 to 50 °C | CCCCCCCCCCCCCCCCCCOc1cc(OCCCOc2ccccc2OCc2ccccc2)cc(C(=O)OCc2ccccc2)c1 |
| 152 to 154 °C | CNC(=O)CCSCc1csc(NC(N)=NCC(F)(F)F)n1 |

Further lines, the molecule ahead of its results:

| SMILES | melting point |
| --- | --- |
| O=C1C(=O)N(Cc2ccc(O)cc2)c2ccc(S(=O)(=O)N3CCCC3COc3cccnc3)cc21 (centres undefined) | 127 to 129 °C |
| c1ccc(C(c2ccccc2)(c2ncccn2)n2ccnc2)cc1 | 138 to 143 °C |
| c1ccc(-c2csc(Nc3cc4ccccc4cn3)n2)cc1 | 265 to 267 °C |
| CC(C)c1n[nH]c2c(Cl)nc(Cl)nc12 | > 250 °C |
| COc1cc(OCc2cccnc2)ccc1/C=C/c1cc(/C=C/c2cccc3cc[nH]c23)n[nH]1 | 122 to 129 °C |
| O=C(c1c[nH]c2cc(Cl)ccc12)C(F)(F)F | 256 to 258 °C |
| CN(C)c1ncc(-c2cccc(-n3cnc4cc(-c5ccoc5)ccc43)c2)cn1 | 183 to 184 °C |
| CN1N=C(Br)C2N=C(Cl)N=C(O)C21 (centres undefined) | 260 to 262 °C |
| O=C(Nc1ccccc1)c1nn(-c2cccc(C(F)(F)F)c2)ccc1=O | 181 to 182 °C |
| O=C(O)COc1ccc(Nc2nccc(-c3ccncc3)n2)cc1 | 308 to 310 °C |
| Nc1nc(COc2ccc(Cl)cc2)nc2nccnc12 | 246 to 248 °C |
| CC(C)Oc1cc(OC(C)C)c2c(=O)cc(Sc3ccc(O)cc3)oc2c1 | 234 to 236 °C |
| Cc1ccccc1-c1cc2cnc(N)nc2n(C)c1=O | 239 °C |
| [N-]=[N+]=C1C(=O)Oc2ccc(S(=O)(=O)Cl)cc2C1=O | 185 °C |
| CCn1cnc2c(C#N)nc(Cl)cc21 | 138 °C |
| Cn1cnc(C2C(Cl)=CC=CC2(F)Cc2ccc(Cl)cc2)n1 (centres undefined) | 78.5 to 80.5 °C |
| CS(=O)(=O)Nc1ccc2c(c1)CC(=O)N2CCN1CCN(Cc2ccccc2)CC1 | 196 to 198 °C |
| Cc1ccn2cc(CC(=O)N3CCN(c4ccc5[nH]c(=O)ccc5c4)CC3)nc2c1 | > 250 °C |
| O=C1CCC(c2ccccc2)N1c1ccccc1 (centres undefined) | 106 to 108 °C |
| Oc1ccccc1OCCOCCOc1ccccc1O | 85 °C |
| Cc1ccc(C=C2SC(=S)N(CC(=O)O)C2=O)cc1 | 245 to 250 °C |
| CC=CCN1c2cc(Cl)ccc2NC(=O)[C@@H]1C | 87 to 88 °C |
| CNC(=O)CN1CCC(O)C1=O (centres undefined) | 129 to 130 °C |
| COc1ccc(S(=O)(=O)N2CCc3cccc(-c4ccc(O)cc4)c32)cc1 | 179 to 180 °C |
| [N-]=[N+]=Nc1nc(-c2ccccc2)nc(-c2ccccc2)n1 | 115 to 117 °C |
| CSCCC(=N)Nc1cn(-c2cccnc2)nc1Cl | 137 °C |
| O=c1cc(-c2ccc(C(F)(F)F)cc2)cc(C(F)(F)F)o1 | 52 °C |
| Cc1cc2oc(=O)c3c(c2cc1C)CCN(CCN1CCCCC1)C3 | 142 to 145 °C |

| SMILES | melting point |
| --- | --- |
| COc1oc(-c2ccc(NS(=O)(=O)c3sc4ccc(F)cc4c3C)c(S(C)(=O)=O)c2)nc1C | 232 to 233 °C |
| COc1ccc(C(O)c2ccccn2)c(Cl)c1Cl (centres undefined) | 174 to 176 °C |
| CN1C2CCC1C1CN(C(=O)N3c4ccccc4C(=O)Nc4cccnc43)CC12 (centres undefined) | 218 to 220 °C |
| Cc1c(C(=O)Nc2ccc(N3CCN(C4CCOCC4)CC3)c(C#N)c2)cnn1-c1ccc(F)c(F)c1 | 235 °C |
| Cc1nnc(-c2ccc3ncn(C4CCN(S(C)(=O)=O)CC4)c3c2)o1 | 233 to 234 °C |
| COc1ccc2ccc(N3C(=O)c4ccccc4C3OC(=O)Oc3ccccc3)nc2n1 (centres undefined) | 145 °C |
| CN1C(=O)CCC2(C)c3ccc(C(c4ccccc4)c4ccccc4)cc3CCC12 (centres undefined) | 145 to 146 °C |
| CCOC(=O)C1=CC(=NO)CC(c2ccc(Cl)cc2F)N1 (centres undefined) | 124 to 126 °C |
| CCNc1nc(C)c(-c2ccnc(Nc3ccc(N4CCCCC4)c(C)c3)n2)s1 | 213 to 214 °C |
| CCCOc1ccc(C#N)cc1O | 99 °C |
| COC(=O)C1C(c2ccccc2)C2(C(=O)OC)C(C)=NC1(C)CC2C[Si](C)(C)C (centres undefined) | 152 to 155 °C |
| COCc1c(C(=O)c2ccccc2)ncc2[nH]c3ccc(O)cc3c12 | 258 °C |
| Cc1cc(CCNc2ncnc3c(F)ccc(F)c23)ccc1O | 244 to 251 °C |
| O=Cc1c(O)c(O)cc2ccccc12 | 132 to 133 °C |
| COc1cccc(C#Cc2nc(C)ccc2N)c1 | 165 to 166 °C |
| O=C1c2ccccc2C(=O)N1CCCC1c2ccccc2C=Cc2ccccc21 | 126 to 132 °C |
| COc1cc(OC)nc(Oc2ccnc3c(Cl)cccc23)n1 | 115 to 118 °C |
| OC1CCCc2nc3ccccc3c(NCc3ccccc3C(F)(F)F)c21 (centres undefined) | 158 to 160 °C |
| Cn1ncc(/C=C/C(=O)Nc2ccc3c(c2)oc(=O)n3C)c1-c1ccc(F)cc1 | 265 to 266 °C |
| O=C(O)c1ccc(-n2cc[nH]c2=S)cc1 | 194 to 196 °C |
| Cc1noc(NS(=O)(=O)c2cc(S(=O)(=O)c3ccccc3)cs2)c1Br | 181 to 184 °C |
| Cn1cnc(S(=O)(=O)N2CCC3(CC2)CSC2=C(O3)c3ccccc3C(=O)C2=O)c1 | 256 to 257 °C |
| Cc1nc2c(Cl)c(NC(=O)Cc3ccc(Cl)cc3)ccc2s1 | 227 to 229 °C |
| COc1cc2c(=O)ccn(C)c2cc1OC | 169 to 173 °C |
| Cc1ccsc1-c1ccc(C(C)C(=O)O)cc1 (centres undefined) | 95 to 96 °C |
| O=C1NCCCc2ccc([N+](=O)[O-])cc21 | 177 to 180 °C |
| COc1ccc(-c2cnc3cc4cn(Cc5ccccc5)nc4cc3n2)cc1F | 225 to 227 °C |
